From the supplement of paper PMC10307832

Legend:
Test in all cases: relative viability (nuclei count vs DMSO), 5 days (fraction); higher = more cells survive
[1] = compound: C#Cc1cccc(Nc2ncnc3cc(OCCOC)c(OCCOC)cc23)c1 [Erlotinib] + C[C@]1(O)C[C@@H](c2nc(-c3ccc4ccc(-c5ccccc5)nc4c3)c3c(N)nccn32)C1 [Linsitinib] (partner 1 µM)
In short: (§1)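 Lung cancer cell lines in 1536-well plates were dosed by pin tool the day after seeding, either with one drug alone or with a fixed anchor-drug dose plus five library-drug doses (not always all listed) in √10 steps. After 5 days, cells were fixed and their nuclei stained in one step (final 0.05% Triton X-100, 1% formaldehyde, 1 ug/ml Hoechst), then counted on 4× images. Relative viability is the nuclei count in treated wells divided by that in vehicle wells. Values are medians of duplicate plates.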

[2] = compound: O=C(Nc1c[nH]nc1-c1nc2ccc(CN3CCOCC3)cc2[nH]1)NC1CC1 [AT9283] + CC(C)C[C@H](NC(=O)[C@H](Cc1ccccc1)NC(=O)c1cnccn1)B(O)O [Bortezomib] (partner 0.002 µM)
In short: as §1

[3] = compound: C#Cc1cccc(Nc2ncnc3cc(OCCOC)c(OCCOC)cc23)c1 [Erlotinib] + CS(=O)(=O)N1CCN(Cc2cc3nc(-c4cccc5[nH]ncc45)nc(N4CCOCC4)c3s2)CC1 [Pictilisib] (partner 1 µM)
In short: as §1

[4] = compound: C#Cc1cccc(Nc2ncnc3cc(OCCOC)c(OCCOC)cc23)c1 [Erlotinib] + CS(=O)(=O)CCNCc1ccc(-c2ccc3ncnc(Nc4ccc(OCc5cccc(F)c5)c(Cl)c4)c3c2)o1 [Lapatinib] (partner 2 µM)
In short: as §1

[5] = compound: O=C(Nc1c[nH]nc1-c1nc2ccc(CN3CCOCC3)cc2[nH]1)NC1CC1 [AT9283] + CCNC(=O)c1noc(-c2cc(C(C)C)c(O)cc2O)c1-c1ccc(CN2CCOCC2)cc1 [Luminespib] (partner 0.01 µM)
In short: as §1

PC-3 [JPC-3]
relative viability ([1]; first compound 0.02 µM): 0.829
relative viability ([1]; first compound 0.2 µM): 0.461
relative viability ([1]; first compound 0.6325 µM): 0.423
relative viability ([1]; first compound 2 µM): 0.385
relative viability ([2]; first compound 0.003 µM): 0.822
relative viability ([2]; first compound 0.03 µM): 0.86
relative viability ([2]; first compound 0.09487 µM): 0.867
relative viability ([2]; first compound 0.3 µM): 0.687
relative viability ([3]; first compound 0.02 µM): 0.573
relative viability ([3]; first compound 0.2 µM): 0.395
relative viability ([3]; first compound 0.6325 µM): 0.416
relative viability ([3]; first compound 2 µM): 0.295
relative viability ([4]; first compound 0.02 µM): 0.437
relative viability ([4]; first compound 0.2 µM): 0.383
relative viability ([4]; first compound 0.6325 µM): 0.442
relative viability ([4]; first compound 2 µM): 0.399
relative viability ([5]; first compound 0.003 µM): 0.739
relative viability ([5]; first compound 0.03 µM): 0.744
relative viability ([5]; first compound 0.09487 µM): 0.473
relative viability ([5]; first compound 0.3 µM): 0.404

PC-14
relative viability ([1]; first compound 0.02 µM): 0.426
relative viability ([1]; first compound 0.2 µM): 0.289
relative viability ([1]; first compound 0.6325 µM): 0.269
relative viability ([1]; first compound 2 µM): 0.219
relative viability ([2]; first compound 0.003 µM): 0.944
relative viability ([2]; first compound 0.03 µM): 0.704
relative viability ([2]; first compound 0.09487 µM): 0.179
relative viability ([2]; first compound 0.3 µM): 0.116
relative viability ([3]; first compound 0.02 µM): 0.221
relative viability ([3]; first compound 0.2 µM): 0.0861
relative viability ([3]; first compound 0.6325 µM): 0.0876
relative viability ([3]; first compound 2 µM): 0.0584
relative viability ([4]; first compound 0.02 µM): 0.276
relative viability ([4]; first compound 0.2 µM): 0.289
relative viability ([4]; first compound 0.6325 µM): 0.307
relative viability ([4]; first compound 2 µM): 0.279
relative viability ([5]; first compound 0.003 µM): 0.156
relative viability ([5]; first compound 0.03 µM): 0.15
relative viability ([5]; first compound 0.09487 µM): 0.121
relative viability ([5]; first compound 0.3 µM): 0.0746

RERF-LC-KJ
relative viability ([1]; first compound 0.02 µM): 0.914
relative viability ([1]; first compound 0.2 µM): 0.837
relative viability ([1]; first compound 0.6325 µM): 0.736
relative viability ([1]; first compound 2 µM): 0.565
relative viability ([2]; first compound 0.003 µM): 1.02
relative viability ([2]; first compound 0.03 µM): 0.793
relative viability ([2]; first compound 0.09487 µM): 0.526
relative viability ([2]; first compound 0.3 µM): 0.296
relative viability ([3]; first compound 0.02 µM): 0.579
relative viability ([3]; first compound 0.2 µM): 0.412
relative viability ([3]; first compound 0.6325 µM): 0.376
relative viability ([3]; first compound 2 µM): 0.307
relative viability ([4]; first compound 0.02 µM): 0.857
relative viability ([4]; first compound 0.2 µM): 0.864
relative viability ([4]; first compound 0.6325 µM): 0.936
relative viability ([4]; first compound 2 µM): 0.734
relative viability ([5]; first compound 0.003 µM): 1.24
relative viability ([5]; first compound 0.03 µM): 0.792
relative viability ([5]; first compound 0.09487 µM): 0.362
relative viability ([5]; first compound 0.3 µM): 0.28

SK-LU-1
relative viability ([1]; first compound 0.02 µM): 1.46
relative viability ([1]; first compound 0.2 µM): 1.11
relative viability ([1]; first compound 0.6325 µM): 1.18
relative viability ([1]; first compound 2 µM): 0.75
relative viability ([2]; first compound 0.003 µM): 1.21
relative viability ([2]; first compound 0.03 µM): 1.02
relative viability ([2]; first compound 0.09487 µM): 0.646
relative viability ([2]; first compound 0.3 µM): 0.279
relative viability ([3]; first compound 0.02 µM): 0.695
relative viability ([3]; first compound 0.2 µM): 0.665
relative viability ([3]; first compound 0.6325 µM): 0.598
relative viability ([3]; first compound 2 µM): 0.58
relative viability ([4]; first compound 0.02 µM): 0.974
relative viability ([4]; first compound 0.2 µM): 0.933
relative viability ([4]; first compound 0.6325 µM): 0.995
relative viability ([4]; first compound 2 µM): 0.869
relative viability ([5]; first compound 0.003 µM): 0.203
relative viability ([5]; first compound 0.03 µM): 0.203
relative viability ([5]; first compound 0.09487 µM): 0.209
relative viability ([5]; first compound 0.3 µM): 0.157

SW 1573
relative viability ([1]; first compound 0.02 µM): 0.81
relative viability ([1]; first compound 0.2 µM): 0.724
relative viability ([1]; first compound 0.6325 µM): 0.797
relative viability ([1]; first compound 2 µM): 0.853
relative viability ([2]; first compound 0.003 µM): 1.04
relative viability ([2]; first compound 0.03 µM): 0.304
relative viability ([2]; first compound 0.09487 µM): 0.279
relative viability ([2]; first compound 0.3 µM): 0.236
relative viability ([3]; first compound 0.02 µM): 0.525
relative viability ([3]; first compound 0.2 µM): 0.482
relative viability ([3]; first compound 0.6325 µM): 0.62
relative viability ([3]; first compound 2 µM): 0.419
relative viability ([4]; first compound 0.02 µM): 1.3
relative viability ([4]; first compound 0.2 µM): 1.05
relative viability ([4]; first compound 2 µM): 1.17
relative viability ([5]; first compound 0.003 µM): 0.199
relative viability ([5]; first compound 0.03 µM): 0.148
relative viability ([5]; first compound 0.09487 µM): 0.142
relative viability ([5]; first compound 0.3 µM): 0.169

UMC-11
relative viability ([1]; first compound 0.02 µM): 1.04
relative viability ([1]; first compound 0.2 µM): 1.05
relative viability ([1]; first compound 0.6325 µM): 1.16
relative viability ([1]; first compound 2 µM): 0.945
relative viability ([2]; first compound 0.003 µM): 0.465
relative viability ([2]; first compound 0.03 µM): 0.108
relative viability ([2]; first compound 0.09487 µM): 0.0924
relative viability ([2]; first compound 0.3 µM): 0.129
relative viability ([3]; first compound 0.02 µM): 0.795
relative viability ([3]; first compound 0.2 µM): 0.7
relative viability ([3]; first compound 0.6325 µM): 1.04
relative viability ([3]; first compound 2 µM): 0.816
relative viability ([4]; first compound 0.02 µM): 1.04
relative viability ([4]; first compound 0.2 µM): 0.952
relative viability ([4]; first compound 0.6325 µM): 1.11
relative viability ([4]; first compound 2 µM): 0.919
relative viability ([5]; first compound 0.003 µM): 1.05
relative viability ([5]; first compound 0.03 µM): 0.161
relative viability ([5]; first compound 0.09487 µM): 0.16
relative viability ([5]; first compound 0.3 µM): 0.165
